From the supplement of paper PMC10331698 come the findings set out here.

± gives the standard deviation of the averaged measurements.

Common to all, as to assay: LOEC (log10 uM (lowest observed effect concentration))
Compound in test [1]: O=C(O)C(F)(F)C(F)(F)C(F)(F)C(F)(F)C(F)(F)C(F)(F)C(F)(F)C(F)(F)Cl [9-Chloro-perfluorononanoic acid]
As for the experimental part: (§1)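 BioMAP Diversity Plus panel in human primary cell co-cultures, 4 concentrations in duplicate blinded samples. Responses are log10 fold change versus DMSO control, processed with tcpl v2.1.0. A hit is called when responses at any concentration exceed the cutoff (the larger of 3*bmad or log10(1.2)); the lowest observed effect concentration (modl_ga, log10 uM) is reported for hits.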

Compound in test [2]: O=C(O)C(F)(F)OC(F)(F)C(F)(F)OC(F)(F)C(F)(F)C(F)(F)C(F)(F)F [Perfluoro-3,6-dioxadecanoic acid]
How it is done:
as §1

Compound in test [3]: O=S(=O)(O)C(F)(F)C(F)(F)C(F)(F)C(F)(F)C(F)(F)C(F)(F)C(F)(F)C(F)(F)F [Perfluorooctanesulfonic acid]
As for the experimental part:
as §1

Compound in test [4]: O=S(=O)(O)C(F)(F)C(F)(F)C(F)(F)C(F)(F)C(F)(F)C(F)(F)C(F)(F)C(F)(F)F [Potassium perfluorooctanesulfonate]
As for the experimental part: as §1

Compound in test [5]: C=CC(=O)OCCC(F)(F)C(F)(F)C(F)(F)C(F)(F)F [2-(Perfluorobutyl)ethyl acrylate]
How it is done: as §1

Compound in test [6]: N=C(N)C(F)(F)C(F)(F)C(F)(F)C(F)(F)C(F)(F)C(F)(F)C(F)(F)F [Perfluorooctanamidine]
As for the experimental part:
as §1

Compound in test [7]: O=P(O)(O)CCC(F)(F)C(F)(F)C(F)(F)C(F)(F)C(F)(F)C(F)(F)C(F)(F)C(F)(F)F [((Perfluorooctyl)ethyl)phosphonic acid]
How it is done: as §1

Compound in test [8]: Cn1cnc([N+](=O)[O-])c1Sc1ncnc2[nH]cnc12 [Azathioprine]
How it is done:
as §1

Compound in test [9]: O=C(O)C(F)(F)C(F)(F)C(F)(F)C(F)(F)C(F)(F)C(F)(F)C(F)(F)C(F)(F)C(F)(F)C(F)(F)C(F)(F)C(F)(F)F [Perfluorotridecanoic acid]
How it is done: as §1

Turning to KF3CT IP10 down, the “LOEC (log10 uM)” value in test [1] and in [2] was 1.78 throughout.
Turning to KF3CT MCP1 down, the “LOEC (log10 uM)” value in test [1] is 1.78.
The same measure, in the same setting: the value for KF3CT MIG down was 1.78.
In the case of KF3CT PAI1 down, the “LOEC (log10 uM)” value in [1] came to 1.3; in test [3], 1.78; in [4], 1.78.
With KF3CT SRB down, the “LOEC (log10 uM)” value in test [1] was determined as 1.78.
Same read-out and setting: the value for KF3CT TIMP2 down was 1.78.
Same read-out and setting: then KF3CT uPA down, with 1.78.
In the case of LPS CD40 down, the “LOEC (log10 uM)” value in test [5], in test [6] and in test [7] was 1.78 in each case.
As for LPS CD69 down, the “LOEC (log10 uM)” value in [6], in [1] and in test [2] was 1.78 in each case.
Turning to LPS IL8 up, in [1], the “LOEC (log10 uM)” value came to 1.54 ± 0.34.
On to LPS MCP1 down, for which, in test [1], the “LOEC (log10 uM)” value is 1.78.
For the test system LPS MCSF down, the “LOEC (log10 uM)” value in test [8] is 1.48; in test [9], 1.48; in test [7] it was 1.78.
Turning to LPS MCSF up, the “LOEC (log10 uM)” value in test [1] came to 1.78.
On to LPS PGE2 down, for which the “LOEC (log10 uM)” value is 1.78 in test [1] and 1.3 in [2].
For the test system LPS SRB down, the “LOEC (log10 uM)” value in [1] was 1.78.
With LPS TNFa down, in [8], the “LOEC (log10 uM)” value came out at 1.48.
For the test system LPS Thrombomodulin up, the “LOEC (log10 uM)” value in test [1] worked out at 1.78.
LPS VCAM1 down: the “LOEC (log10 uM)” value in [5] came out at 1.78; in test [8], 1.22 ± 0.37; in test [6], 1.78; in [2] it was 1.78.
In the case of MyoF ACTA1 down, in [1], the “LOEC (log10 uM)” value was determined as 1.78.
For MyoF CollagenI down, the “LOEC (log10 uM)” value in [9] stood at 1.48; in test [1], 1.3; in test [2] it was 1.78.
Turning to MyoF CollagenIII down, the “LOEC (log10 uM)” value worked out at 1.3 in test [1] and 1.78 in test [2].
MyoF MMP1 up: the “LOEC (log10 uM)” value in test [1] was 1.78.
On the same count and under the same terms, then MyoF PAI1 down, with 1.78; and MyoF SRB down, with 1.78; and MyoF TIMP1 down, with 1.78.
Take MyoF TIMP1 up: the “LOEC (log10 uM)” value in test [2] was 1.3.
As to MyoF VCAM1 down, in test [1], the “LOEC (log10 uM)” value was determined as 1.54 ± 0.34.
Turning to SAg CD38 down, the “LOEC (log10 uM)” value in test [5] and in test [1] was 1.78 throughout.
Consider SAg CD40 down, for which the “LOEC (log10 uM)” value was determined as 1.78 in [5], 1.22 ± 0.37 in test [9], 1.78 in test [1] and 1.78 in test [7].
With SAg CD69 down, the “LOEC (log10 uM)” value stood at 1.78 in test [5], 1.48 in test [8] and 1.78 in test [1].
On to SAg Eselectin down, for which the “LOEC (log10 uM)” value in [5] amounted to 1.78; in [8] it was 1.48.
Take SAg IL8 down: the “LOEC (log10 uM)” value in [5] came to 1.78; in [8], 1.48; in [1], 1.78.
For SAg MCP1 down, the “LOEC (log10 uM)” value in [5] and in test [1] was 1.78 in each case.
For the test system SAg PBMCCytotoxicity down, the “LOEC (log10 uM)” value in [5] and in test [6] was 1.78 in each case.
SAg Proliferation down: the “LOEC (log10 uM)” value in test [5] was found to be 1.54 ± 0.34; in [8], 0.954; in test [6], 1.78.
For the test system SAg SRB down, the “LOEC (log10 uM)” value in test [6], in test [1] and in [7] was 1.78 throughout.
In the case of hDFCGF EGFR down, the “LOEC (log10 uM)” value in test [2] is 1.78.
In the case of hDFCGF IP10 down, the “LOEC (log10 uM)” value in test [5] was 1.3; in [8], 1.22 ± 0.37; in test [9] it was 0.239 ± 0.34; in [1], 1.3; in test [2] it was 1.54 ± 0.34; in test [3] it was 1.3. Besides, in test [4], the “LOEC (log10 uM)” value worked out at 1.07 ± 0.32.
In the case of hDFCGF ITAC down, the “LOEC (log10 uM)” value in test [5] turned out to be 1.07 ± 0.32; in test [8] it was 0.977 ± 0.71; in test [9], 0.239 ± 0.34; in test [1], 0.573 ± 0.39; in test [2], 1.54 ± 0.34; in test [4] it was 1.78.
As to hDFCGF MCP1 down, the “LOEC (log10 uM)” value in test [1] was 1.78.
Consider hDFCGF MCSF down, for which the “LOEC (log10 uM)” value in test [5] came to 1.3; in test [8] it was 1.48; in test [6] it was 1.78; in test [1] it was 1.78; in test [2], 1.78; in test [4], 1.78.
hDFCGF MIG down: the “LOEC (log10 uM)” value was 1.3 in test [5]; 0.716 ± 0.34 in [9]; 1.3 in [1]; 1.54 ± 0.34 in [2]; 1.78 in test [4].
As to hDFCGF MMP1 down, in test [1], the “LOEC (log10 uM)” value amounted to 0.845.
On to hDFCGF MMP1 up, for which the “LOEC (log10 uM)” value in test [5] was 1.54 ± 0.34.
Turning to hDFCGF PAI1 down, the “LOEC (log10 uM)” value is 1.48 in test [8], 1.78 in test [6], 1.78 in test [1] and 1.78 in test [7].
On to hDFCGF SRB down, for which the “LOEC (log10 uM)” value in [1] was determined as 1.78.
As for hDFCGF TIMP2 down, the “LOEC (log10 uM)” value in test [1] came to 1.3; in [3], 1.78; in test [4], 1.54 ± 0.34.
